In ChEMBL document CHEMBL2434918, “QM-polarized ligand docking accurately predicts the trend in binding affinity of a series of arylmethylene quinuclidine-like derivatives at the α4β2 and α3β4 nicotinic acetylcholine receptors (nAChRs)” (Bioorg Med Chem Lett, 2013):

Assays:
[1] = target: T1, Neuronal acetylcholine receptor; alpha4/beta2 (Homo sapiens, UniProt P17787+P43681); experiment: Displacement of [3H]nicotine from human alpha4beta2 nAChR expressed in human SH-EP1 cell membranes after 2 hrs by liquid scintillation counting analysis
[2] = target: T1, Neuronal acetylcholine receptor; alpha4/beta2; experiment: Agonist activity at human alpha4beta2 nAChR expressed in human SH-EP1 cells assessed as induction of intracellular Ca2+ influx by FLIPR assay relative to nicotine; format: cell-based
[3] = target: T1, Neuronal acetylcholine receptor; alpha4/beta2; experiment: Agonist activity at human alpha4beta2 nAChR expressed in human SH-EP1 cells assessed as induction of intracellular Ca2+ influx by FLIPR assay; format: cell-based
[4] = target: T1, Neuronal acetylcholine receptor; alpha4/beta2; experiment: Agonist activity at human alpha4beta2 nAChR expressed in human SH-EP1 cells assessed as induction of electrophysiological response at 0.1 uM by patch clamp method relative to acetylcholine; format: cell-based
[5] = target: T1, Neuronal acetylcholine receptor; alpha4/beta2; experiment: Agonist activity at human alpha4beta2 nAChR expressed in human SH-EP1 cells assessed as induction of electrophysiological response at 1 uM by patch clamp method relative to acetylcholine; format: cell-based
[6] = target: T1, Neuronal acetylcholine receptor; alpha4/beta2; experiment: Agonist activity at human alpha4beta2 nAChR expressed in human SH-EP1 cells assessed as induction of electrophysiological response at 10 uM by patch clamp method relative to acetylcholine; format: cell-based

T1 sequence (P17787 whole entry): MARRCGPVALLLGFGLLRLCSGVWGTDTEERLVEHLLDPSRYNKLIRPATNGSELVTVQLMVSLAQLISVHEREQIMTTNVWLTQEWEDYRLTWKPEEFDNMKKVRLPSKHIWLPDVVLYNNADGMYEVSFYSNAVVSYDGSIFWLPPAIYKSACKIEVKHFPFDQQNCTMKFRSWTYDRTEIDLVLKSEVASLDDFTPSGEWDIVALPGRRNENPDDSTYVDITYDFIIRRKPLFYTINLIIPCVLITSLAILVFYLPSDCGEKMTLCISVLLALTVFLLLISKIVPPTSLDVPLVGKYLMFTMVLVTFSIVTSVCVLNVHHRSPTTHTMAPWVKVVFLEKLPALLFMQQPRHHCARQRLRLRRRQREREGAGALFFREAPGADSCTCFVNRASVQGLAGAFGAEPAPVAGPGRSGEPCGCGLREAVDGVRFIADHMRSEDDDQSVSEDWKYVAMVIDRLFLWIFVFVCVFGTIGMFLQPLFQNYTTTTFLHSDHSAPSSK
T1 sequence (P43681 whole entry): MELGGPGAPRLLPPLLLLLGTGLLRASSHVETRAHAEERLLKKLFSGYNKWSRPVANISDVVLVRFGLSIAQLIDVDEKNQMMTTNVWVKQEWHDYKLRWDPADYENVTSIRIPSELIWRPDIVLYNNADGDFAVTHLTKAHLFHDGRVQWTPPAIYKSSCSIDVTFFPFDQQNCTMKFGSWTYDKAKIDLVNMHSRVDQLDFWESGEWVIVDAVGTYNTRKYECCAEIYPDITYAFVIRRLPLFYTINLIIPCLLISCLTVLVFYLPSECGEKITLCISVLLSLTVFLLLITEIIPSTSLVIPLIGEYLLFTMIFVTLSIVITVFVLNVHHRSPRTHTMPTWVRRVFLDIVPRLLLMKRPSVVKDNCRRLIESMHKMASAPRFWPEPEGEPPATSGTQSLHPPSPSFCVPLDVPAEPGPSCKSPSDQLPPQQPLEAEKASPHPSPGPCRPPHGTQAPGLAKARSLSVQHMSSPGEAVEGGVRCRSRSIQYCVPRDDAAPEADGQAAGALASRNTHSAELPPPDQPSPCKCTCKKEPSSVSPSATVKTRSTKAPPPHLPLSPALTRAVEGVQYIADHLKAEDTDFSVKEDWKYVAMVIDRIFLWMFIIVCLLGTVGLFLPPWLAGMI

Row | SMILES | Ki [1] [nM] | Emax [2] [%] | EC50 [3] [µM] | Activity [4] [%] | Activity [5] [%] | Activity [6] [%]
1 | C(=C1/CN2CCC1CC2)/c1cccnc1 | 6 | 18 | > 10 | 4 | 11 | 24
2 | c1ccc(C(c2ccccc2)[N+]23CCN(CC2)CC3)cc1 | > 10000 | < 5 |  | 1 | 3 | 1
3 | C(=C1/CN2CCC1CC2)/c1ccccc1 | 1600 | 11 | > 10 | 2 | 3 | 2
4 | N#C/C(=C1\CN2CCC1CC2)c1ccccc1 | 1100 | < 5 |  | 3 | 2 | 2
5 | c1ccc(C[N+]23CCC(CC2)C(=C(c2ccccc2)c2ccccc2)C3)cc1 | 7000 | < 5 |  | 2 | 2 | 1
6 | c1ccc(C(=C2CN3CCC2CC3)c2ccccc2)cc1 | 90 | 6 |  | 0.6 | 2 | 2
7 | C(CN1CCCCC1)=C(c1ccccc1)c1ccccc1 | 160 | 9 |  | 0.8 | 2 | 1
